Measured values: patent US6201006A, “Aromatic amidine derivatives useful as selective thrombin inhibitors” (C & C Research Laboratories, priority 1996, dated 2001)

Assays:
[1] = tested on: thrombin time (TT) in rat plasma; assay: Thrombin time (TT) in rat plasma after oral administration; assay type: in vivo, SD male rats; settings: TT after / TT before administration
Protocol: SD male rats weighing 220±20 g which had fasted overnight were used as experimental animals. Blood taken from the hearts of the experimental animals just before administration of the test compound and at 30, 60, 120 and 240 minutes after oral administration of the test compound was mixed with 0.108M sodium citrate in the ratio of 9:1. The mixtures thereby obtained were centrifuged at 15,000 rpm for 5 minutes at 4° C. to separate the plasma, which was stored at -20° C. until the TT was measured by means of the method described below.
200 μl of Owren's buffer was added to 50 μl of the plasma and 100 μl of the diluted plasma thereby obtained was injected into the vial of a coagulometer and then incubated for 2 minutes at 37° C. To each vial was added 100 μl of thrombin at a concentration of 20 U/ml, which had prewarmed at 37° C., to measure the time (TT) until clotting occurred. The ratio of the TT in rat plasma after administration of the test compound to the TT in rat plasma before administration of the test compound was calculated.

[2] = tested on: trypsin; assay: Inhibitory activity for trypsin; assay type: biochemical
[3] = target: T1, human thrombin (Homo sapiens, UniProt P00734); assay: Inhibitory activity for thrombin (chromogenic substrate hydrolysis, 405 nm); assay type: biochemical; settings: for Selectivity (trypsin/thrombin): IC50 for trypsin divided by IC50 for thrombin; for IC50: human thrombin, 20 min, pH 8.0, N-benzoyl-Phe-Val-Arg-p-nitroanilide
T1 construct: purchased Sigma T-6759
Method in brief: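 Thrombin: human enzyme (5 units/ml stock, 0.1% BSA) acted for 20 min on N-benzoyl-Phe-Val-Arg-p-nitroanilide in 125 mM NaCl, 50 mM Tris-HCl pH 8.0, with compounds dissolved in 50% methanol. Hydrolysis was read at 405 nm. Selectivity index was trypsin IC50 divided by thrombin IC50.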

| IC50 [2] [nM] | Selectivity (trypsin/thrombin) [3] | IC50 [3] [nM] | SMILES | Plasma TT ratio after administration to rat ([1]; 50 mg/kg oral) | Plasma TT ratio after administration to rat ([1]; 100 mg/kg oral) |
| --- | --- | --- | --- | --- | --- |
| 287 | 24.7 | 11.6 | CCn1c(CC[C@@H]2CCCN2C(=O)[C@H]2CCCN2C(=O)CCN)cc2ccc(C(=N)N)cc21 [Compound 155, 1-ethyl-2-[2-[(S)-1-[[(R)-1-(3-aminopropanoyl)pyrrolidin-2-yl]carbonyl]pyrrolidin-2-yl]ethyl]indole-6-carboxamidine] | 3.93 | 7.36 |
| 382 | 25.0 | 15.3 | CCn1c(CC[C@@H]2CCCN2C(=O)[C@H]2CCCN2C(=O)C[C@H](N)C(N)=O)cc2ccc(C(=N)N)cc21 [Compound 160, 1-ethyl-2-[2-[(S)-1-[[(R)-1-((S)-3-amino-3-carbamoylpropanoyl)pyrrolidin-2-yl]carbonyl]pyrrolidin-2-yl]ethyl]indole-6-carboxamidine] | 2.30 | – |
| 373 | 35.1 | 10.6 | CCn1c(CC[C@@H]2CCCN2C(=O)[C@H]2CCCN2C(C)=O)cc2ccc(C(=N)N)cc21 [Compound 171, 1-ethyl-2-[2-[(S)-1-[((R)-1-acetyl-pyrrolidin-2-yl)carbonyl]pyrrolidin-2-yl]ethyl]indole-6-carboxamidine] | – | 4.23 |
